Test results taken from ChEMBL document CHEMBL5584289, “Molecular understanding of the therapeutic potential of melanin inhibiting natural products” (RSC Med Chem, 2024).
In brackets after ≈: the same amount, converted by molar mass. Peptide text beside a SMILES is read from it.

What was measured:
[1] = Acute toxicity in zebrafish embryos assessed as lethal concentration compound measured for every 24 hrs in 96 hrs; parameters: species or system Danio rerio; settings: in vivo
[2] = Inhibition of Artocarpus chama tyrosinase
[3] = molecular target: T1, Mushroom tyrosinase (Agaricus bisporus) (UniProt O42713+Q00024+C7FF04+C7FF05); test: Inhibition of mushroom tyrosinase at 25 uM using L-tyrosine as substrate incubated for 30 mins relative to control; type: protein assay
Mushroom tyrosinase [4] = molecular target: T2, Mushroom tyrosinase (Agaricus bisporus, UniProt O42713+Q00024+C7FF04+C7FF05); test: Inhibition of mushroom tyrosinase monophenolase activity; type: protein assay
[5] = Antioxidant activity assessed as interaction reducing activity with DPPH at 10 uM measured after 1 hr by absorbance based assay; type: functional
[6] = Antioxidant activity assessed as DPPH radical scavenging activity; type: functional
[7] = Antioxidant activity assessed as hydroxyl radical scavenging activity at 10 uM; type: functional
B16-F10 [8] = test: Cytotoxicity against mouse B16-F10 cells assessed as reduction in cell viability at 15 uM incubated for 72 hrs relative to control; type: functional
[9] = molecular target: T1, Mushroom tyrosinase (Agaricus bisporus); test: Inhibition of mushroom tyrosinase at 50 ug/ml relative to control; type: protein assay; settings: dose 50.0 µg/ml
[10] = Antioxidant activity assessed as DPPH radical scavenging activity measured after 30 mins; type: functional
[11] = Antioxidant activity assessed as ABTS radical scavenging activity; type: functional
Mushroom tyrosinase [12] = molecular target: T2, Mushroom tyrosinase; test: Inhibition of mushroom tyrosinase; type: protein assay
MNT-1 = test: Antiproliferative activity against human MNT-1 cells assessed as reduction in cell viability incubated for 72 hrs by MTT assay; type: functional, cell-based; settings: MNT-1, 72 h
Mushroom tyrosinase [13] = molecular target: T2, Mushroom tyrosinase; test: Inhibition of mushroom tyrosinase diphenolase activity; type: protein assay
[14] = molecular target: T1, Mushroom tyrosinase (Agaricus bisporus); test: Inhibition of mushroom tyrosinase at 12.5 ug/ml using L-DOPA as substrate relative to control; type: protein assay; settings: dose 12.5 µg/ml
B16 = test: Cytotoxicity against mouse B16 cells assessed as inhibition of cell proliferation incubated for 48 hrs by MTS assay; type: functional, cell-based; settings: B16, 48 h
[15] = molecular target: T1, Mushroom tyrosinase (Agaricus bisporus); test: Inhibition of mushroom tyrosinase monophenolase activity at 12.5 ug/ml using L-tyrosine as substrate relative to control; type: protein assay; settings: dose 12.5 µg/ml
B16-F10 [16] = test: Cytotoxicity against mouse B16-F10 cells; type: functional, cell-based
B16-F10 [17] = test: Antimelanogenic activity against alpha-MSH-stimulated mouse B16-F10 cells assessed as intracellular melanin production level at 10 uM pre-incubated for 1 hrs followed by alph-MSH stimulation and measured after 72 hrs by microplate reader analysis; type: functional; settings: time 73 hrs

COc1c(O)c(OC)c2c(oc3c(O)cccc32)c1OC
LC50 at 24 h [1]: 4 µg/mL (≈ 13.8 µM)

COc1cc2c(oc3c(O)cccc32)c(OC)c1OC
LC50 at 24 h [1]: 37 µg/mL (≈ 135 µM)

COc1cc(O)c2c(c1)OC(c1ccc(O)cc1O)CC2=O (stereo unspecified)
IC50 [2]: 38.78 µg/mL (≈ 128 µM)

C[C@@]12C[C@@]3(O)O[C@@H](O1)[C@]1(COC(=O)c4ccccc4)[C@H]3C[C@@]12O[C@@H]1O[C@H](COC(=O)c2cc(O)c(O)c(O)c2)[C@@H](O)[C@H](O)[C@H]1O
inhibition [3]: 94.9%
IC50 (Mushroom tyrosinase [4]): 0.17 µM

CC(=O)CC(=O)c1ccc(O)c(O)c1
IC50 [5]: 69.1 µM
IC50 ([6]; read-out: IC50): 11.3 µM
IC50 [7]: 9.3 µM

COc1ccc2c(c1)oc1c(OC)c(O)c(OC)cc12
LC50 at 24 h [1]: 30 µg/mL (≈ 109 µM)

COc1cc2c(cc1O)[C@@H]1COc3cc(O)ccc3[C@@H]1O2
Activity (B16-F10 [8]): 14%

O=C(O)CC(OC(=O)/C=C/c1ccc(O)cc1)C(=O)O (stereo unspecified)
inhibition [9]: 16.3%

NCCCC[C@H](NC(=O)[C@H](Cc1cnc[nH]1)NC(=O)CN)C(=O)O (H-Gly-His-Lys-OH)
LC50 at 24 h [1]: 30 µg/mL (≈ 88.1 µM)

O=C1O[C@H]([C@@H](O)CO)C(O)=C1O [ASCORBIC ACID]
IC50 [10]: 5.65 µg/mL (≈ 32.1 µM)
IC50 [6]: 67.45 µg/mL
IC50 [11]: 44.62 µg/mL (≈ 253 µM)

O=C(/C=C/c1ccc(O)c(O)c1)OC(C(=O)O)C(O)C(=O)O (stereo unspecified) [CAFFEOYLTARTARIC ACID]
IC50 (Mushroom tyrosinase [12]): 30 µM

COc1cc(O)c2c(=O)c(-c3ccc(O)cc3O)coc2c1 [CAJANIN]
IC50 (MNT-1): 1 µM

Oc1cc(O)c2c(c1)O[C@H](c1ccc(O)c(O)c1)[C@@H](O)C2 [CIANIDANOL]
IC50 (Mushroom tyrosinase [13]): 0.07 µM
IC50 (Mushroom tyrosinase [4]): 0.06 µM

CC1(C)[C@@H](O)CC[C@]2(C)[C@H]3C(=O)C=C4[C@@H]5C[C@@](C)(C(=O)O)CC[C@]5(C)CC[C@@]4(C)[C@]3(C)CC[C@@H]12 [ENOXOLONE]
inhibition [3]: 92.6%
IC50 [6]: 7.31 µg/mL

O=C(O)c1cc(O)c(O)c(O)c1 [GALLIC ACID]
IC50 (Mushroom tyrosinase [13]): 1.06 µM
IC50 (Mushroom tyrosinase [4]): 1.53 µM

O=C(OC[C@H]1O[C@@H](OC(=O)c2cc(O)c(O)c(O)c2)[C@H](OC(=O)c2cc(O)c(O)c(O)c2)[C@@H](OC(=O)c2cc(O)c(O)c(O)c2)[C@@H]1OC(=O)c1cc(O)c(O)c(O)c1)c1cc(O)c(O)c(O)c1 [PENTAGALLOYL GLUCOSE]
IC50 (Mushroom tyrosinase [13]): 0.02 µM
IC50 (Mushroom tyrosinase [4]): 0.02 µM

C=C(CC[C@@H](C(=O)O)[C@H]1[C@H](O)C[C@@]2(C)C3=CC[C@@H](C(=C)C)[C@](C)(CCC(=O)O)C3=CC[C@]12C)C(C)C [PORICOIC ACID A]
inhibition [14]: 40.9%
IC50 (B16): 48 µg/mL (≈ 96.3 µM)
inhibition [15]: 39.5%

COc1c(O[C@@H]2O[C@H](CO)[C@@H](O)[C@H](O)[C@H]2O)cc2occ(-c3ccc(O)cc3)c(=O)c2c1O [TECTORIDIN]
IC50 (Mushroom tyrosinase [12]): 2.62 µg/mL
IC50 [10]: 69.36 µg/mL (≈ 150 µM)
IC50 [11]: 135.31 µg/mL (≈ 293 µM)

COc1c(O)cc2occ(-c3ccc(O)cc3)c(=O)c2c1O [TECTORIGENIN]
IC50 (Mushroom tyrosinase [12]): 1.39 µg/mL
IC50 [10]: 46.34 µg/mL (≈ 154 µM)
IC50 [11]: 45.6 µg/mL (≈ 152 µM)

Cc1ccc(C(C)C)c(O)c1 [THYMOL]
IC50 (B16-F10 [16]): 160 µM

C/C1=C\CC(C)(C)/C=C/C(=O)/C(C)=C/CC1 [ZERUMBONE]
Activity (B16-F10 [17]): 40%
